Like-named read-outs stand apart in the source and are kept apart here. Residues, ends and D or L forms follow the SMILES beside them. *: point of attachment. X1 = Cn1c2ccccc2c2ccnc(-c3ccc(/C=C/C(=O)*)cn3)c21
Legend:
MRC-5 fibroblasts = assay type: cell-based, human; conditions: for PI (IC50,dark/IC50,light) MRC-5: blue light 460 nm
Procedure: The effect of Ir-H, Ir-Me, Ru-H, and Ru-Me on cell viability was evaluated in the A549 lung cancer and PC-3 prostate cancer cell lines by MTT assays. PC-3 cells were specifically chosen due to their high expression levels of GRPR on their surface, allowing for further evaluation of the activity of the BN3-derived metallopeptides Ir-BN and Ru-BN.[38],[51] In contrast, A549 cells express low levels of GRPR.[52] MRC-5 fibroblasts were used as a nonmalignant cell model.[53]Table 3 reports the half maximal inhibitory concentration (IC50) values obtained after treating the cells either under dark conditions or upon exposure to blue light at a dose of 24.1 J cm^–2. The photocytotoxicity index (PI), defined as the IC50,dark/IC50,light, is provided for each compound.
Stock solutions of the complexes and metallopeptides were initially prepared at a concentration of 5 mM in DMSO and then diluted in sterile distilled water to achieve a final concentration of 1 mM, with a resulting DMSO concentration of 20% v/v. Cells were seeded into 96-well plates at a density of 2500 cells/well for A549, 3500 cells/well for PC-3, and 5500 cells/well for MRC-5. Following 24 h of incubation for attachment, cells were treated in triplicate with freshly prepared working solutions of the compounds in the culture medium at concentrations ranging from 0.001 to 100 μM. The maximum DMSO concentration in the working solutions was 2% (v/v). The working concentrations for each compound were adjusted based on their cytotoxicity. Following a 4 h incubation period to allow internalization of the compounds into the cells, the plates were kept in dark conditions or exposed to blue (460 nm) or red (655 nm) light for 1 h using an LED system (LuxLight), providing a total dose of 24.1 J cm^–2. All plates were incubated in the dark for an additional 43 h. Cells were then washed with phosphate-buffered saline (PBS), and 100 μL of fresh culture medium containing 10% of 3-[4,5-dimethylthiazol-2-yl]-2,5 diphenyl tetrazolium bromide (MTT) solution (0.5 mg/mL) (Sigma- Aldrich) was added to each well. After a 2 h incubation period, the formazan crystals were dissolved in DMSO, and the absorbance was measured at 570 nm using a Multiscan Plate Reader (Synergy 4, Biotek, Winooski, USA). The concentration causing a 50% reduction in cell viability (IC50) was determined for each compound with the Gen5 software (BioTek). At least three independent experiments were conducted for each compound.

[1] = n-octanol/PBS partition coefficient, shake flask; assay type: physicochemical; conditions: UV/vis
Procedure: First, the n-octanol/PBS partition coefficient values, log Poct/PBS, of the metal PSs were experimentally determined to quantify their lipophilicity (Figure S56). Indeed, the shake flask method was employed, and the metal content was measured in both phases by UV/vis spectroscopy. […]
an integrating sphere. For the determination of the luminescence lifetime, the fluorescence decay was measured on a FLS980 spectrofluorometer equipped with a TSCPC laser (Ir(III) complexes: λ ex = 405 nm; Ru(II) complexes: λ ex = 450 nm) and a REDPMT detector. The F980 spectrometer operating software was used to collect and process luminescence lifetime data.
Photostability of Ir(III) and Ru(II) complexes. The photostability of Ir(III) or Ru(II) complexes was monitored by 1H RMN. The 1.5 × 10−2 M solutions of the complexes in DMSO-d6:D2O (3:2) at 25 °C were irradiated with blue LED light (λ irr = 460 nm, 24 W) for different intervals of time. […]
Singlet oxygen generation. The capacity of Ir-Me and Ru-Me to generate singlet oxygen ( 1O2) was determined by an indirect method using 9,10-anthracenediyl-bis(methylene) dimalonic acid (ABDA) as a probe. The reaction between ABDA and 1O2 was monitored by UV-Vis and the gradual decrease of the maximum at 379 nm was used to quantify the ability of our complexes to generate 1O2. Aerated solutions of ABDA (8 × 10^-5 M) and the corresponding PS in H2O:DMSO (50:50) were irradiated with a blue LED strip (λ ir = 460 nm; 24 W) at room temperature for intervals of 5 minutes (0 min → 100 min) and UV-Vis spectra were recorded after every irradiation interval. Concentrations of PS were tuned to achieve similar values of absorbance at 460 nm (A460 nm ≈ 0.06). The singlet oxygen quantum yield (φ) was determined using Rose Bengal (RB) as standard reference (φ Δ = 0.75)6 and the following equation:7 […]
where kPS and kRB represent the decomposition rate constants of the photobleaching of ABDA determined by the slope calculated from the linear fit of ln(A 0/A) vs time. […]
Determination of Lipophilicity. […] The log P oct/PBS values were determined as follows: […]

[2] = MRC-5, 4 h incubation, blue light 1 h (460 nm, 24.1 J cm^–2), MTT after 48 h, read-out: IC50 MRC-5 Light
[3] = MRC-5, 4 h incubation, kept in the dark 1 h, MTT after 48 h, read-out: IC50 MRC-5 Dark

SMILES | IC50 (MRC-5 fibroblasts; [2]) [µM] | IC50 (MRC-5 fibroblasts; [3]) [µM] | PI (IC50,dark/IC50,light) MRC-5 (MRC-5 fibroblasts; MRC-5) | PI (IC50,dark/IC50,red light) MRC-5 (MRC-5 fibroblasts; MRC-5, red light 655 nm) | IC50 (MRC-5 fibroblasts; MRC-5, red light 1 h (655 nm, 24.1 J cm^–2), MTT after 48 h, read-out: IC50,redlight MRC-5) [µM] | log Poct/PBS [1] | IC50 (MRC-5 fibroblasts; 4 h) [µM] | IC50,light in MRC-5, fold higher than that of Ir-H (MRC-5 fibroblasts; MRC-5, blue light) [fold] | IC50,dark in MRC-5, fold higher than that of Ir-H (MRC-5 fibroblasts; MRC-5, dark) [fold]
Cn1c2ccccc2c2ccnc(-c3ccc(/C=C/C(=O)O)cn3)c21.[Cl-].[Cl-].[Ru+2].c1ccc(-c2ccccn2)nc1.c1ccc(-c2ccccn2)nc1 [Ru-H] | 43.5 ± 4.5 | 53.9 ± 5.4 | 1.2 | 0.9 | 62.3 ± 7.1 | −1.10 | – | – | –
CC(C)C[C@H](NC(=O)[C@H](CC(C)C)NC(=O)[C@H](Cc1c[nH]cn1)NC(=O)CNC(=O)[C@@H](NC(=O)[C@H](C)NC(=O)[C@H](Cc1c[nH]c2ccccc12)NC(=O)[C@H](CCC(N)=O)NC(=O)[C@H](CC(N)=O)NC(=O)CNC(=O)[C@H](CC(C)C)NC(=O)[C@H](CCCNC(=N)N)NC(=O)[C@H](CCC(N)=O)NC(=O)/C=C/c1ccc(-c2nccc3c4ccccc4n(C)c23)nc1)C(C)C)C(N)=O [Ir-BN] (X1-QRLGNQWAVGHLL-NH2) | – | – | 2.8 | – | – | – | 28.7 ± 5.9 | 4.4 | 2.1
COC(=O)/C=C/c1ccc(-c2nccc3c4ccccc4n(C)c23)nc1.[Cl-].[Ir+3].[c-]1ccccc1-c1ccccn1.[c-]1ccccc1-c1ccccn1 [Ir-Me] | 0.0313 ± 0.019 | 1.12 ± 0.31 | 35.8 | – | – | 2.03 | – | – | –
Cn1c2ccccc2c2ccnc(-c3ccc(/C=C/C(=O)O)cn3)c21.[Cl-].[Ir+3].[c-]1ccccc1-c1ccccn1.[c-]1ccccc1-c1ccccn1 [Ir-H] | 6.46 ± 0.801 | 39.1 ± 2.4 | 6.1 | – | – | 1.80 | – | – | –

Reference: publication PMC11483813, “Bombesin-Targeted Delivery of β-Carboline-Based Ir(III) and Ru(II) Photosensitizers for a Selective Photodynamic Therapy of Prostate Cancer” (Inorganic Chemistry, 2024)
